# Measured values: PMC9070039, “Synthesis and evaluation of antimicrobial activity, cytotoxic and pro-apoptotic effects of novel spiro-4H-pyran derivatives” (RSC Advances, 2019)
# Legend:
# [1] = system: E. coli; assay: Disk diffusion antibacterial test; format: cell-based, Escherichia coli; design: key: —: inactive at concentration 50 mM; conditions: disc diffusion test, concentration 50 mM
# Description: (§1) Antibacterial effects of spiro[indeno[2,1-c]pyridazine-9,4′-pyran]-3′,4-dicarbonitrile derivatives 5a–j were evaluated in vitro by using disk diffusion method against Gram-positive (S. aureus) and Gram negative (E. coli). The diameter of inhibition zone correlates to the sensitivity of a bacterium to an antibacterial agent. […] E. coli was resistant against all compounds tested (Table 2). Tetracycline and DMSO were used as positive control and negative control respectively. Next, the active compounds were analysed using MIC assay to determine the lowest concentration for inhibition. […] It seems due to the difference in structure of bacterial cell wall (i.e., the presence of outer membrane with lipid, lipopolysaccharide, and lipoprotein content in Gram negative bacteria), E. coli was resistant against the related synthetic compounds.
# (§2) Antibacterial activity of the prepared synthetic compounds against the Gram-negative bacteria (E. coli; ATCC: 15922) and the Gram-positive bacteria (S. aureus; PTCC: 1112, International no. ATCC6538P) were examined by disk diffusion assay. Bacterial cultures were obtained from Persian Type Culture Collection, Tehran, Iran (PTCC). Isolated pure colonies from fresh grown bacteria were transferred from the plates into sterile normal saline solution and it was vortexed to form bacterial homogenous suspensions. The turbidity was then adjusted to 0.5 McFarland standard units, and the suspensions were poured over Mueller–Hinton agar (MHA) plates. Sterile filter paper disks were placed over these plates. The sterile disks were impregnated with the tested compounds. Positive control (tetracycline) and negative control ([…]) were used. To determine MIC, the concentrations of tested substance were prepared within the range from 30–5 mM. Incubate in incubator at 37 °C in 24 h for bacteria (Table 2).
# [2] = system: Bcl-2; assay: Real-time RT-PCR, Bcl-2 mRNA expression; format: cell-based, human; conditions: A549 cells, 40 μM, 48 h
# Source text: (§3) Finally, we confirmed that apoptosis mediated by mitochondria induces in A549 cells. It is well known that the anti-apoptotic Bcl-2 protein is localized on the outer mitochondrial membranes and antagonizes the action of pro-apoptotic Bax. The balance between these two proteins prevents translocation of cytochrome c from the mitochondria to cytoplasm and determines the apoptosis resistance. Down-regulation of Bcl-2 and/or up-regulation of Bax disturb this balance and leads to apoptosis (Fig. 3A).
# (§4) For quantitative real-time RT-PCR analysis, after 48 h of treatment with 40 μM of related drug (5a), A549 cells was lysed and the total RNA was extracted using 500 μL of Trizol® reagent according to the protocol provided by the manufacturer (Invitrogen Life Technologies, Carlsbad, CA, USA) followed by reverse transcription into cDNA according to manufactures protocol (ReveretAid M-Mulv reverse transcriptase kit, Thermo Fisher Scientific, MA, USA). Real-time RT-PCR was then performed to amplify cDNA using SYBR green dye universal master mix (Bioron GmbH, Germany), on a Light Cycler 480 (Roche) using the primers for GAPDH-F: 5′-CAA GGT CAT CCA TGA CAA CTTTG-3′, R:5′-[…]-3′; Bax-F:5′-[…]-3′, R: 5′-[…]-3′and Bcl-2-F: 5′-[…]-3′, R: 5′- […]-3′for forty cycles. Data represent averaged copy number normalized to the GAPDH housekeeping gene. Primer synthesis was done by Pishgam Biotech Co. Tehran, Iran. […]
# [3] = system: S. aureus; assay: MIC determination; format: cell-based; conditions: Staphylococcus aureus; read-out: MICs (mM) S. aureus
# Description: as §1, §2
# [4] = system: A549 cells; assay: DAPI staining assay; format: cell-based, human; conditions: 24 h treatment
# Description: (§5) At first, in order to compare anti-cancer properties, the synthesized compounds 5a–j were evaluated against A549 cells, MCF-7 cells, A375 cells, PC3 cells, LNCaP cells and HDF cells lines using the MTT colorimetric assay. The activity is expressed as 50% growth inhibitory concentration (IC50) values at 48 h. We used DMSO (1%) as negative control and Etoposide as positive control.
# DAPI staining assay was used to determine chromatin changes. A549 cells were seeded in six well plates (5 × 10^4 cells per well) containing 12 mm cover-slips and subsequently treated for compound 5a (sample or treated cells) and DMSO (control or untreated cells) for 24 h. Cells then were fixed with 3.7% paraformaldehyde, permeabilized in 0.5% (w/v) Triton X-100, 1% BSA (w/v) for 5 min, washed in PBS, and stained with DAPI (Sigma-Aldrich, USA). All images were taken by an inverted fluorescent microscope (Nikon Eclipse Ti-E).
# [5] = system: PC3 cells; assay: MTT cytotoxicity assay; format: cell-based; conditions: Homo sapiens, PC-3, 48 h
# Description: as §5
# (§6) Human non-small-cell lung cancer A549 cells, human breast cancer MCF-7 cells, human malignant melanoma cells (A375), human prostate cancer cells (PC3 cells, LNCaP cells) and normal cells HDF (human dermal fibroblast) were received from Pasture Institute, Tehran, Iran. MCF-7 cells were grown in RPMI 1640 medium, A549 cells, A375 cells, PC3 cells, LNCaP cells and HDF cells were grown in DMEM medium. All media contain 10% fetal bovine serum (FBS), penicillin G, streptomycin 100 μg mL^−1 and 1% L-glutamine. The cells were cultured and incubated under humidified 5% CO2 atmosphere at 37 °C.
# (§7) The effect of compounds treatment on the viability of cancer cell lines was measured by (3-(4,5-dimethylthiazol-2-yl)-2,5-diphenyl tetrazolium bromide or MTT) assay (MTT assay kit, Bio IDEA, CatNo: BI1017, Iran) based on the ability of live cells to cleave the tetrazolium ring to a molecule that absorb at […] as per the manufacturer's instructions.[33] Etoposide (was kindly provided by Dr A. Foroumadi, Tehran medical Science University, Iran) and dimethyl sulfoxide (or DMSO) was used as positive and negative controls, respectively.[34] Briefly, cells were plated in 96-well culture plates (5 × 10^3 cells per well). After 24 h incubation, the cells were treated with different concentrations of the compounds. After 48 h at 37 °C, the medium was removed and 100 μL of MTT reagent (1 mg mL^−1) was added to each well, and cells were further incubated at 37 °C for 4 h. The MTT solution was removed, 50 μL of DMSO was added to each well to dissolve formazan crystals, and the plates were gently shaken for 10 minutes, followed by reading with an ELISA plate reader (BiotekELx 800, USA). The 50% inhibition concentration (IC50) was defined as the concentration that inhibited cell proliferation by 50% when compared to DMSO treated cells (as negative control).
# [6] = system: LNCaP cells; assay: MTT cytotoxicity assay; format: cell-based; conditions: Homo sapiens, 48 h
# Description: as §5, §6, §7
# [7] = system: A549 cells; assay: MTT cytotoxicity assay; format: cell-based; conditions: Homo sapiens, 48 h
# Description: as §5, §6, §7
# [8] = system: HDF cells; assay: MTT cytotoxicity assay; format: cell-based; conditions: 48 h, normal cells (human dermal fibroblast)
# Description: as §5, §6, §7
# [9] = system: A375 cells; assay: MTT cytotoxicity assay; format: cell-based; conditions: Homo sapiens, A-375, 48 h
# Description: as §5, §6, §7
# [10] = system: MCF-7 cells; assay: MTT cytotoxicity assay; format: cell-based; conditions: Homo sapiens, MCF7, 48 h
# Description: as §5, §6, §7
# [11] = system: Bax; assay: Real-time RT-PCR, Bax mRNA expression; format: cell-based, human; conditions: A549 cells, 40 μM, 48 h
# Source text: as §3, §4
# [12] = system: S. aureus; assay: Disk diffusion antibacterial test; format: cell-based, Staphylococcus aureus; conditions: there called agar dilution method
# Description: as §1, §2
smiles,measurement,setting,value
"Cn1c2c(c(=O)n(C)c1=O)C1(C(C#N)=C(N)O2)c2ccccc2-c2c1n[nH]c(=O)c2C#N (stereo not drawn) [5a, 7′-Amino-1′,3′-dimethyl-2′,3,4′-trioxo-1′,2,2′,3,3′,4′-hexahydrospiro[indeno[2,1-c]pyridazine-9,5′-pyrano[2,3-d]pyrimidine]-4,6′-dicarbonitrile]",Inhibition zone (mm) E. coli,[1],—
same,Relative expression of Bcl-2 mRNA,[2],down-regulation expression
same,MIC,[3],5 mM
same,Chromatin changes / cell death by DAPI staining,[4],induced cell death in A549 cells
same,IC50,[5],> 100 µM
same,IC50,[6],32.15 ± 0.046 µM
same,IC50,[7],40 ± 0.007 µM
same,IC50,[8],> 100 µM
same,IC50,[9],70.72 ± 0.064 µM
same,IC50,[10],> 100 µM
same,Relative expression of Bax mRNA,[11],up-regulated expression
same,Sensitivity of S. aureus to compound,[12],sensitive
